We go through 3 molecules from patent publication US20170303543A1, “AGRICHEMICAL COMPOSITIONS AND METHODS OF MAKING AND USING SAME” (priority 2014, published 2017).

This assay has as its system Xanthomonas alfalfae. Briefly: Alamar Blue assay for antimicrobial activity (FIG. 11). It counts as cell-based. The following applies: metallic zinc concentration as low as 50 PPM, components at relevant concentrations. The source says: FIG. 11A, FIG. 11B, FIG. 11C and FIG. 11D show a series of images illustrating Alamar Blue assay in accordance with the embodiments. […] It is to be understood that this disclosure is not limited to the foregoing particular embodiments described, as such may, of course, vary. It is also to be understood that the terminology used herein is for the purpose of describing particular embodiments only, and is not intended to be limiting, since the scope of the present disclosure will be limited only by the appended claims.
On the technique in general: Resazurin is reduced to fluorescent resorufin, in cell work by metabolically active cells.
In the case of `[Zn+2]` [divalent zinc ion], the “antimicrobial effect against Xanthomonas alfalfae” value is reported as “did not elicit similar effect”.

Consider `OO` [hydrogen peroxide], for which the “antimicrobial effect against Xanthomonas alfalfae” value is given as “did not elicit similar effect”. In the case of `NC(N)=O` [urea] it was “did not elicit similar effect”.
